Assay results reported in patent publication US20050287068A1, “Efficacy of active immunotherapy by integrating diagnostic with therapeutic methods” (priority 2004, published 2005).

System: PRAME 425-433
Experiment: IFN-gamma ELISA on splenocytes restimulated with native peptide after intra-lymph-node immunization
Format: in vivo, HHD transgenic mice
Conditions: different concentrations of plasmid or peptide (peptide together with dsRNA), inguinal lymph nodes, days 0, 3, 14 and 18; spleens 10 days after immunization; FIG. 4 in pg IFN-gamma/ml
From the text: HHD transgenic mice (n=4/group) were immunized with a PRAME 425-433 expressing plasmid (as described in U.S. Provisional Application No. __/______ (Atty Docket No. MANNK.053PR), entitled METHODS AND COMPOSITIONS TO ELICIT MULTIVALENT IMMUNE RESPONSES AGAINST DOMINANT AND SUBDOMINANT EPITOPES, EXPRESSED ON CANCER CELLS AND TUMOR STROMA, filed on date even with this disclosure, which is hereby incorporated by reference in its entirety) or peptide together with dsRNA (different concentrations of plasmid or peptide, by direct inoculation into the inguinal lymph nodes with 25 μl of plasmid or peptide in PBS/lymph node, on days 0, 3, 14 and 18. Spleens were harvested at 10 days after completion of immunization, splenocytes were incubated over 48 hours with native peptide (10 μg/ml), supernatants harvested and IFN-gamma concentration measured by ELISA.

Substance: PRAME 425-433 peptide: PRAME 425-433 peptide given together with dsRNA into inguinal lymph nodes (SLLQHLIGL; UniProt P78395 425-433, looked up, fragment)
- magnitude of the immune response (IFN-gamma concentration measured by ELISA): the larger the dose of peptide, the lower the immune response
